Experimental data taken from US20060110456A1, “Method for biocidal and/or biostatic treatment and compositions therefor” (NATIONAL UNIVERSITY OF SINGAPORE, priority 2004, published 2006).
Entries after “also recorded” stand apart in the source; their conditions may differ. Structures can show the parent of a compound that is named as a salt.

Legend:
[1] = tested on: marine bacteria (ten strains); assay: Bio-adhesion assay (crystal violet microplate); assay type: cell-based, marine bacteria isolated from Singapore fouling communities; details: for Effect of drugs on adhesion of bacteria: 50 μl of 125 μg ml^−1 drug + 200 μl bacteria, 2 hours
Protocol: The effect of pharmaceuticals on bacterial adhesion was analyzed using a modified microplate method adapted from Shea and Williamson (1990). This method consists of staining the attached bacteria with crystal violet, releasing the stain with sodium desoxycholate, and measuring the resulting absorbance of the crystal violet. The absorbance is proportional to the degree of bacterial adhesion to the surface.
Ten strains of bacteria (strain numbers 1, 4, 9, 14, 18, 20, 27, 28, 29 and 30) were chosen for this study. Flat bottom non-tissue culture treated polystyrene (hydrophobic, Falcon #351172) (referred to as polystyrene) and flat bottom tissue culture treated polystyrene (hydrophilic, Falcon #353072) microplates were used in the analyses. These two types of plates were chosen because they were sterile and offered two different kinds of surfaces to determine the adhesion preferences of the bacteria. Each test was done in duplicate. For the control and blank wells, 50 μl of sterile deionized water were added. For those wells that were to contain drugs, 50 μl of drugs at concentration of 125 μg ml^−1 were added. Then 200 μl of bacteria suspension in sterile seawater, whose absorbance had been adjusted to 0.6 at 600 nm using a spectrophotometer (Beckman), were added. Blanks contained 200 μl of sterile seawater.
The bacteria in suspension were allowed to attach for 2 hours at 28° C. Unattached cells were removed by pipetting out almost all trace of liquid and rinsed three times with 300 μl of sterile seawater each time. The attached cells were stained with 200 μl of crystal violet solution (0.1% w/v) in each well for 5 min. After removing the stain by pipetting, the wells were rinsed twice with 300 μl of sterile deionized water each time. Sodium desoxycholate (200 μl) solution (2% w/v) was then added to each well to extract the crystal violet from the stained cells for 10 min. The absorbance of the extracted solution was read at 590 nm using a microplate reader (Sunrise, Tecan, Switzerland).
The data were analyzed using T-test (Two-sample assuming unequal variances) to determine the significance of the absorbance values of each bacterial strain versus the blanks to determine whether there was adhesion, i.e. increase in absorbance. Each drug effect on adhesion was analyzed by comparing the absorbance of each bacterial strain minus the control blank versus bacteria in presence of drug minus the drug control. When the data is significant, there are bacterial cells attached to the surface in the control but in the presence of drugs, there is no attachment.

[2] = tested on: Balanus amphitrite cyprids; assay: whole plant or invertebrate; details: for IC50: Amphibalanus amphitrite, 24 h, read-out: ED50; for Prevention of settlement of barnacle cyprids: crude rank, best (1) to worst (8)
Protocol: Pharmaceuticals from the respective manufacturers were treated in the following way. A pill containing a known amount of active ingredient (as stated in product information) was ground in a mortar and pestle and a suspension of 2 mg ml^−1 generated in de-ionized water. This stock solution is stored at −20° C. in 4 ml amber screw cap vials. For the bioassays, 250 ul of stock solution is added to 10 ml of 1 um filtered seawater. This suspension was then sonicated for 10 minutes. Serial dilutions of this 50 μg ml^−1 seawater solution, or suspension, with seawater was done to generate the required range of concentrations.
This method is now standard practice for many antifouling screening of novel compounds.
Barnacle larvae from field-collected adults were reared on an algal mixture of 1:2:2 v/v of Rhodomonas salina, Tetraselmis suecica and Chaetoceros muelleri at 25° C., at approximately 5×10^5 cells per ml density. On this regime, larvae metamorphose to cyprids in 5 days.
Test solutions were made up to twice the required final concentration. 1 ml of test solution was added into each well, and cyprids were transferred into each well in 1 ml of seawater. Assays were done in triplicate. After 24 hours, larvae that had attached and metamorphosed were enumerated and the result expressed as percentage settlement. Larvae not attached were scored as not settled.
The Therapeutic Ratio, or LC50/EC50, is a way of assessing the effectiveness of the compound in relation to its toxicity. […] LC50 and EC50 estimates and the therapeutic ratio should be considered as working values providing an estimation of potency, rather than as absolutes.

[3] = in words; cited from earlier work
[4] = tested on: hard fouling (barnacles, serpulids, spirorbids); assay: Field testing of coated rods; assay type: in vivo; parameters: Total hard fouling, difference in mean cover (%), drug vs control / Barnacles, difference in mean cover (%), drug vs control: tested at 25 µg/ml of coating; Serpulids, difference in mean cover (%), drug vs control: tested at 25 µg/ml of coating mix; details: for Overall performance in field assay: crude rank, best (1) to worst (8); for Barnacles, difference in mean cover (%), drug vs VC50 / Serpulids, difference in mean cover (%), drug vs VC50 / Spirorbids, difference in mean cover (%), drug vs VC50 / Total hard fouling, difference in mean cover (%), drug vs VC50: drug + VC50 rods vs VC50 control; for Barnacles, difference in mean cover (%), drug vs control / Serpulids, difference in mean cover (%), drug vs control / Spirorbids, difference in mean cover (%), drug vs control / Total hard fouling, difference in mean cover (%), drug vs control: drug + VC50 rods vs uncoated blank control; for Reduction of total hard fouling cover compared to VC50 alone / Effect of addition of drug on antifouling performance of VC50 coating (total hard fouling): drug at 25 ug per ml of VC50 coating; for Barnacles Mean cover (%) / Serpulids Mean cover (%) / Spirorbids Mean cover (%) / Total hard fouling Mean cover (%): rods coated with drug + VC50, field test; for Total hard fouling Mean cover (%): percentage cover within 6 mm×50 mm transect
Protocol: Fouling on rods occurs more rapidly than on flat panels, enabling rapid assessment of the performance of coatings.
6 mm diameter glass rods were cut to 150 mm length and prepared prior to coating by baking in a furnace at 150° C. for 24 hours and then cooling in a dessicator.
All pharmaceuticals were obtained in commercially available form. All tablets were reduced to fine powder with a mortar and pestle, and capsules were opened to extract the contents. The amount of drug powder required to attain the desired concentrations for all tests was calculated from product dosage information and then measured by weight on a high-resolution electronic balance. This was added to the coating and mixed thoroughly prior to application to obtain the concentration of 25 ug active ingredient per ml of coating mix.
The commercial antifouling product used to benchmark field experiments was VC Offshore with Teflon® manufactured by International Coatings.
For our experiments, a reduced copper coating (“VC50”) was prepared by mixing approximately 20 g of #YBA779 into 100 ml of #YBA707. The prepared coating was then allowed to stand so that bubbles from the mixing process dissipated. 15 ml centrifuge tubes were filled with 10 mls of prepared coating. Prepared glass rods were then immersed in the coating to a height of 100 mm and then suspended on a frame to air dry until coating cured.
Five replicate rods were tested for every experimental treatment, including controls. Two sets of controls were used, an uncoated blank control and a VC50 control without pharmaceutical additives. Rod were randomly arrayed on plastic vexar mesh attached to PVC frames and suspended at a depth of 10 cm from the water surface. […] Rods were examined visually weekly for the duration of testing, which typically lasts between 6 to 10 weeks. All fouling was scored as percentage cover of each category within a 6 mm×50 mm transect on each rod.

[5] = strain 1 (Rhodovulum), hydrophobic surface (untreated polystyrene)
[6] = strain 4 (Bacillus), hydrophilic surface (tissue culture treated polystyrene)
[7] = strain 4 (Bacillus), hydrophobic surface (untreated polystyrene)
[8] = strain 9 (Bacillus), hydrophobic surface (untreated polystyrene)

SMILES | IC50 [2] | Prevention of settlement of barnacle cyprids [2] | Overall performance in field assay [4] | Barnacles, difference in mean cover (%), drug vs VC50 [4] | Serpulids, difference in mean cover (%), drug vs VC50 [4] | Spirorbids, difference in mean cover (%), drug vs VC50 [4] | Total hard fouling, difference in mean cover (%), drug vs VC50 [4] | Barnacles, difference in mean cover (%), drug vs control [4] | Serpulids, difference in mean cover (%), drug vs control [4] | Spirorbids, difference in mean cover (%), drug vs control [4] | Total hard fouling, difference in mean cover (%), drug vs control [4] | Reduction of total hard fouling cover compared to VC50 alone [4] | Barnacles Mean cover (%) [4] | Serpulids Mean cover (%) [4] | Spirorbids Mean cover (%) [4] | Total hard fouling Mean cover (%) [4] | Effect of drugs on adhesion of bacteria [1, 5] | Effect of drugs on adhesion of bacteria [1, 6] | Effect of drugs on adhesion of bacteria [1, 7] | Effect of drugs on adhesion of bacteria [1, 8] | also measured
CN1CCN(C(c2ccccc2)c2ccccc2)CC1 [CYZ, Cyclizine hydrochloride] | 0.156 µg/mL | 4 | 5 | −13% | −1.67% | −5% | −19.7% | −77.34% | −6.67% | +6% | −78.0% | 47.2% | 10.33% | 0% | 11.67% | 22.0% | – | – | – | – | Effect on bacterial adhesion ([1]; polystyrene or tissue culture surface as named in the value, hydrochloride): did not modify bacterial adhesion on polystyrene; also recorded: marginally increased adhesion for strain 27 in the tissue culture surface; Effect of drugs on adhesion of bacteria ([1]; strain 27, hydrophilic surface (tissue culture treated polystyrene)): *Incr adhesion; Solubility [3]: soluble in water; Performance against barnacles ([4]; coated rods, in words): significantly lower than both blank and VC50 controls; Performance against serpulid polychaetes ([4]; coated rods, in words): significantly enhanced the performance of VC50 against serpulid polychaetes; Effect of addition of drug on antifouling performance of VC50 coating (total hard fouling) ([4]; in words, hydrochloride): marginally increased the performance of VC50 coating; also recorded: significantly improved the performance of VC50 coating
CN1CCN(CCCN2c3ccccc3Sc3ccc(Cl)cc32)CC1 [PCZ, prochlorperazine maleate] | 0.174 µg/mL | 2 | 7 | −7.67% | −1.67% | −6.66% | −16% | −70.67% | −3.33% | +15% | −58% | 16% | 22.33% | 0% | 16.67% | 39% | * (Significantly less adhesion observed: * p < 0.05) | * (Significantly less adhesion observed: * p < 0.05) | * (Significantly less adhesion observed: * p < 0.05) | * (Significantly less adhesion observed: * p < 0.05) | Effect of drugs on adhesion of bacteria ([1]; strain 30, hydrophobic surface (untreated polystyrene)): * (Significantly less adhesion observed: * p < 0.05); Effect of addition of drug on antifouling performance of VC50 coating (total hard fouling) ([4]; in words): this reduction was not statistically significant
CNCCC(Oc1ccc(C(F)(F)F)cc1)c1ccccc1 (stereo not drawn) [PZC, fluoxetine hydrochloride] | – | 7 | 6 | −14% | −1.67% | −7.67% | −23.37% | −78.34% | −6.67% | +3.33% | −81.67% | ~24% | 9.33% | 0% | 9% | 18.33% | * (Significantly less adhesion observed: * p < 0.05) | – | – | * (Significantly less adhesion observed: * p < 0.05) | Effect of addition of drug on antifouling performance of VC50 coating (total hard fouling) ([4]; in words): did not significantly improve antifouling performance
CN1CCN(CCCN2c3ccccc3Sc3ccc(C(F)(F)F)cc32)CC1 [TFZ, Trifluoperazine hydrochloride] | 0.0748 µg/mL | 2 | – | – | – | – | – | – | – | – | – | – | – | – | – | – | – | * (Significantly less adhesion observed: * p < 0.05) | *** (*** p < 0.005) | ** (** p < 0.01) | Effect of drugs on adhesion of bacteria ([1]; strain 18 (Microbacterium), hydrophilic surface (tissue culture treated polystyrene)): * (Significantly less adhesion observed: * p < 0.05); Effect of drugs on adhesion of bacteria ([1]; strain 27, hydrophobic surface (untreated polystyrene)): *** (*** p < 0.005)
